Where “and” joins values, the source holds several entries; their conditions need not be identical. Identical values can stand only once. Entries after “also recorded” stand apart in the source; their conditions may differ.

Series [1] has as its system human HBCx-34 breast tumor xenograft. As to the kind of experiment: Antitumor efficacy in HBCx-34 patient-derived breast cancer xenograft (study XTS-1521). The format is in vivo, mouse. The protocol: Antitumor efficacy of an HER2/HER3 targeting antibody was determined in the context of a combination treatment together with an aromatase inhibitor. […] It was used as single agent and in combination with the aromatase inhibitor Letrozole. The hormone-dependent HBCx-34 patient-derived breast cancer xenograft model established in immunodeficient mice was used as an example of a breast cancer.
The HBCx-34 PDX model was derived from a treatment-naïve primary breast infiltrating ductal carcinoma.
Tumor-bearing mice received estrogen diluted in drinking water (β-oestradiol, 8.5 mg/l), from the date of tumor implant to the date of inclusion. During the treatment period, mice were not supplemented with estrogen.
Tumors of the same passage were transplanted subcutaneously onto 6-24 mice (donor mice, passage (n−1)). When these tumors reached 1000 to 2000 mm^3, donor mice were sacrificed by cervical dislocation, tumors were aseptically excised and dissected. After removing necrotic areas, tumors were cut into fragments measuring approximately 20 mm^3 and transferred in culture medium before grafting.
95 mice were anaesthetized with 100 mg/kg ketamine hydrochloride (batch 5D92, Exp: 2017/03, Virbac) and 10 mg/kg xylazine (batch KP0AX9X, Exp: 2017/08, Bayer), and then skin was aseptized with a chlorhexidine solution, incised at the level of the interscapular region, and a 20 mm^3 tumor fragment was placed in the subcutaneous tissue. Skin was closed with clips. All mice from the same experiment were implanted on the same day.
Treatments were randomly attributed to boxes housing up to 5 mice and were initiated 36 days post implantation of the tumor (42% inclusion rate). The study was terminated following 57 days after the start of treatment.
Tumor volume was evaluated by measuring tumor diameters, with a calliper, biweekly during the experimental period.
The formula TV (mm3)=[length (mm)×width (mm)2]/2 was used, where the length and the width are the longest and the shortest diameters of the tumor, respectively.
A total of 4 groups were used as summarized in the scheme below. Each group initially included 10 mice.
All treatment doses were body weight adjusted at each injection.
A general note: In xenograft studies the graft and the host belong to different species.

Series [2] has as its system total HER2, total HER3, HER2:HER3 dimers, HER3-PI3K complexes and phosphorylated HER3. Description: VeraTag assays (five assays) on MCF-7 xenograft tumors. The format is in vivo, human. Conditions: round 1, 3 tumors per group.
Description: Xenograft mice were treated for 8 days with a total of 3 doses of MCLA-128 or 2 doses of Fulvestrant or the combination thereof. 24 hours after the last dose, tumors were harvested, processed to FFPE and subjected to VeraTag analysis for the indicated assays. Five independent tumors per treatment group were used for the final analysis. A statistical t-test compared all groups independently. * indicates P<0.01.
(§3) The initial VeraTag assay analysis (round 1) was performed with 3 tumors per group
(§4) Prior to the VeraTag analysis, tumors were sectioned and stained with hematoxylin-eosin to determine the percentage of tumor content. Microlaser capture was used to grossly remove any non-tumor content. The initial round of analysis included the following five VeraTag assays: total HER2, total HER3, HER2:HER3 dimers, HER3-PI3K complexes and phosphorylated HER3.
Series [3] has as its system cells stimulated with high concentrations of heregulin (HRG). Description: In vitro potency in heregulin-stimulated cells. The format is cell-based.
The conditions of series [4]: MCLA-128 25 mg/kg i.p., Letrozole […] p.o. qdx57.
Description: All animals were weighed biweekly during the experimental period.
Toxicity of the different treatments was determined as: body weight loss percent (% BWL)=100−(mean BWx/mean BW0×100), where BWx is the mean BW at any day during the treatment and BW0 is the mean BW on the 1st day of treatment.
The test system of series [5] is MCF-7 human breast carcinoma. Description: Efficacy in nude mouse xenograft model of MCF-7 human breast carcinoma. The format is in vivo. Conditions: for % TGI (tumor growth inhibition): D25, relative to the control group, Faslodex 5.0 mg/animal, Tamoxifen 1 mg/animal; for % TGI (tumor growth inhibition) / median tumor volume: MCLA-128 25 mg/kg i.p.; for median tumor volume: D25, Faslodex 5.0 mg/animal s.c. qwk×5, Tamoxifen 1 mg/animal s.c. qod×15; for P relative to the control group: D25 tumor volumes, Mann-Whitney test; for anti-tumor efficacy / survival benefit (in words): MCF-7 nude mouse xenograft model; for Volume (mm^3) of xenograft MCF-7 tumors / Weight (mgs) of xenograft MCF-7 tumors: individual tumors of sampling groups 8-10 for pharmacodynamic analysis, 8 day treatment, harvested 24 hours after last dose. Here is the method:
MCLA-128 was evaluated as monotherapy and in combination with the SERM Tamoxifen and SERD Fulvestrant (Faslodex®) for efficacy in a nude mouse xenograft model of estrogen responsive MCF-7 human breast carcinoma. The study design also included tumor collection for downstream analysis.
Treatments began on D1 in mice with established subcutaneous MCF-7 tumors. The study endpoint was intended to be a tumor volume endpoint of 1000 mm3 45 days, whichever came first. […] Tumor regressions, mean tumor growth, and treatment tolerability also were considered.
The animals were fed ad libitum water (reverse osmosis, 1 ppm Cl) and NIH 31 Modified and Irradiated Lab Diet® consisting of 18.0% crude protein, 6.0% crude fat, and 5.0% crude fiber. The mice were housed on irradiated Enrich-o'Cobs™ Laboratory Animal Bedding in static 85 microisolators on a 12-hour light cycle at […] (68-72° F.) and 40-60% humidity.
Three days prior to tumor cell implantation, estrogen pellets (0.36 mg estradiol, 60-day release, Innovative Research of America, Sarasota, FL) were implanted subcutaneously between the scapulae of all test animals using a sterilized trocar.
Xenografts were initiated with cultured MCF-7 human breast carcinoma cells. Tumor cells were grown to mid-log phase in RPMI-1640 medium containing 10% fetal bovine serum, 100 units/mL penicillin G, 100 μg/mL streptomycin sulfate, 2 mM glutamine, 10 mM HEPES, 0.075% sodium bicarbonate and 25 μg/mL gentamicin. On the day of tumor cell implant, the cells were trypsinized, pelleted, and resuspended in phosphate buffered saline (PBS) at a concentration of 1×10e8 cells/mL. Each test mouse received 1×10e7 MCF-7 cells implanted subcutaneously in the right flank, and tumor growth was monitored as their mean volume approached the desired 100 to 150 mm3 range.
Nineteen days after tumor cell implantation, designated as D1 of the study, the mice were placed into six groups of 15 animals and four groups of six animals, Individual tumor volumes ranged from 75 to 196 mm3 and group mean tumor volumes of 134-137 mm3 on D1. Tumor weight was estimated with the assumption that 1 mg is equivalent to 1 mm3 of tumor volume.
MCLA-128 was stored at 4° C., was provided pre-formulated at 2.5 mg/mL and ready to dose as 25 mg/kg in a 10 mL/kg dose volume, and was protected from light during storage and handling. Tamoxifen (Sigma-25 Aldrich. Lot No. WXBB5732V) was received as a powder and was stored at 4° C. protected from light. Each week, a 5 mg/mL dose solution was prepared in corn oil, and each mouse received 0.2 mL for a dose of 1 mg/animal. The dose solution was stored at 4° C. Fulvestrant tradename Faslodex® (AstraZeneca, Lot No. LV032, LW466, and LX432) was received as 50 mg/mL stock solution that was stored at 4° C. Each dosing day, the stock was diluted in corn oil to 25 mg/mL, and each mouse received 0.2 mL for a dose of 5 mg/animal.
Groups 1 and 7 served as controls for efficacy and sampling, respectively, and received MCLA-128 vehicle intraperitoneally (i.p.) on D1, 4, 8, 11, 15, 18, 22, 25, and 29 and corn oil subcutaneously (s.c.) every other day for fifteen doses (qod×15). Groups 2 and 8 were administered MCLA-128 at 25 mg/kg, i.p., on the same schedule as MCLA-128 vehicle. Groups 3 and 9 were administered Faslodex® at 5.0 mg/animal, s.c., once weekly for five weeks (qwk×5). Group 4 was administered Tamoxifen at 1 mg/animal, s.c., qod×15. Groups 5 and 10 received MCLA-128 and Faslodex®, on the regimens described above. Group 6 received MCLA-128 and Tamoxifen on the regimens described above.
MCLA-128 was administered at a 10 mL/kg dose volume, scaled to the individual body weight of each animal.

Series [6] relates to HER3-PI3K complexes. As to the kind of experiment: VeraTag assay HER3-PI3K complexes in MCF-7 xenograft tumors. The format is in vivo, human. Conditions: round 1.
Description: as §3, §4
The subject of series [7] is total HER2. Description: VeraTag assay total HER2 in MCF-7 xenograft tumors. Conditions: data from both rounds combined; 8 day treatment.
Description: (§5) Modulation of levels of total HER2, total HER3 and HER2:HER3 dimers in MCF-7 tumors after 8 day treatment period. […] 24 hours after the last dose, tumors were harvested, processed to FFPE and subjected to VeraTag analysis for the indicated assays. Five independent tumors per treatment group were used for the final analysis. A statistical t-test compared all groups independently. * indicates P<0.01.
(§6) All formalin-fixed tumors from example 2 were processed to FFPE blocks. The initial VeraTag assay analysis (round 1) was performed with 3 tumors per group
as §4
(§7) The tumors analyzed in Round 1 that had scores close to the average value of the specific assays were included in Round 2 to estimate the inter-assay reproducibility and to ensure the data from the two independent experiments could be combined.
In series [8] the test system is total HER3. As to the kind of experiment: VeraTag assay total HER3 in MCF-7 xenograft tumors. The format is in vivo, human. To be noted: data from both rounds combined; 8 day treatment.
Description: as §5, §6, §4, §7
Series [9] deals with HER3. Conditions: in vitro and in vivo; cited from earlier work.
Series [10] concerns Akt. Description: Reverse phase protein array (RPPA) in MCF-7 tumor xenografts: Akt. Conditions: vs vehicle group, one-way ANOVA; tumors collected at maximum tolerated volume or day 39. The format is in vivo, human. An excerpt: (§1) FIG. 9. Reverse phase protein array (RPPA) in MCF-7 tumor xenografts treated with vehicle, MCLA-128, Fulvestrant, Tamoxifen, MCLA-128+ Fulvestrant or MCLA-128+ Tamoxifen. Proteins detected in this assay included (phospho)-Akt and (phospho)-HER3 (full data provided in Appendix 4). One-way ANOVA compared levels in all tumors derived from treatment groups with those derived from the PBS group. ** indicates P<0.01.
(§2) Tumors from groups 1-6 were collected when they had reached the maximum tolerated volume, or at the end of the experiment at day 39, which was 10 days after the last dose. Per treatment group, six tumors were included in the Reverse phase protein array (RPPA). The selection of tumors was made so that the average tumor size of the 6 specimens was close to that of the whole group. RPPA analysis was performed as follows: tumors were sectioned and placed on immunohistochemistry slides. Stromal and inflammatory content was macrodissected to purify for tumors cells. Protein lysates were prepared and protein content was quantified. […] Reverse phase protein array (RPPA) data were analyzed using one-way ANOVA to detect significant differences between the treatment groups and the vehicle group. […] Total ERK levels were increased in the single agent groups only, no differences were measured in the other groups or in the phosphorylated ERK analysis. […]

In series [11] the test system is HER3. Description: Reverse phase protein array (RPPA) in MCF-7 tumor xenografts: HER3. The format is in vivo, human. To be noted: vs vehicle group, one-way ANOVA.
Description: as §1, §2

Series [12] relates to phosphorylated HER3. As to the kind of experiment: VeraTag assay phosphorylated HER3 in MCF-7 xenograft tumors. The format is in vivo, human. Conditions: round 1.
Description: as §3, §4
Series [13] has as its system HER2. Description: Reverse phase protein array (RPPA) in MCF-7 tumor xenografts: HER2. The format is in vivo, human. To be noted: vs vehicle group, one-way ANOVA.
Description: as §1, §2

The test system of series [14] is HER2:HER3 dimers. Description: VeraTag assay HER2:HER3 dimers in MCF-7 xenograft tumors. The format is in vivo, human.
Description: as §5, §6, §4, §7
[15] abbreviates: MCLA-128 25 mg/kg IP, Letrozole […] PO qdx57.

“MCLA-128: ADCC-enhanced IgG1 bispecific antibody that targets the HER2:HER3 dimer”: in series [1] (setting [15]), the “Best T/C %” value amounted to 91.14%, the “Best TGE %” value is 31.59%, the “T/C % (at control group day end)” value stood at 101.56% and the “TGI % (at control group day end)” value came out at 4.87%. The “median TGD × 3 (In days)” value in series [1] (setting [15]) is 48.64 days. Besides, the “TFS (Tumor Free Survivor)” value in [1] (number of complete regressions recorded up to Group Day End) amounted to 0. In addition, in [1] (number of mice with 0 to 14 mm^3 tumor size during at least 3 consecutive measurements), the “CR (complete regression)” value is 0. The “TS (Tumor Stabilization)” value in series [1] (number of mice with constant tumor size during at least 6 consecutive measurements) was 1/9 and 1. For the same compound, in [1] (number of mice with tumor size lower than initial during at least 6 consecutive measurements), the “PR (partial regression)” value was 1/9 and 1. The “effect in any of the VeraTag assays relative to vehicle” value in series [2] is reported as “no significant effect”. Besides, the in vitro potency entry in series [3] was “superior to other anti-HER2 and anti-HER3 antibodies”. Moreover, the “tolerability (in words)” value in [4] was “well tolerated”. Further, in [4] (day of maximum as in text), the “maximum individual body weight loss” value is listed as 8.3% and the “maximum mean body weight loss” value is on record as 0.4%. Also, in series [5], the “% TGI (tumor growth inhibition)” value was determined as 0%, the median tumor volume is on record as 600 mm3, the “P relative to the control group” value is on record as above 0.05 and the “anti-tumor efficacy / survival benefit (in words)” value is listed as “no anti-tumor efficacy as a single agent”. Moreover, in series [5], the “Volume (mm^3) of xenograft MCF-7 tumors” value was 144 mm^3 and 256 mm^3 and 221 mm^3 and 288 mm^3 and 320 mm^3; the “Weight (mgs) of xenograft MCF-7 tumors” value is 120.5 mgs and 98.2 mgs and 135.5 mgs and 134 mgs and 207.7 mgs.
For the compound `C[C@]12CC[C@@H]3c4ccc(O)cc4C[C@@H](CCCCCCCCC[S+]([O-])CCCC(F)(F)C(F)(F)F)[C@H]3[C@@H]1CC[C@@H]2O` (stereo partly drawn) [Fulvestrant], the “HER3-PI3K assay (VeraTag)” value in series [6] is reported as “no significant effect”. The “HER2 expression levels (VeraTag)” value in [7] is given as “significantly higher than in the MCLA-128 single or combined treatment groups; also recorded: significantly higher levels of HER2 expression”. For the same compound, in series [8], the “HER3 expression (VeraTag)” value is “slight increase in HER3”. Also, the “HER3 expression in MCF-7 cells” value in [9] is “upregulate HER3 expression”. The “Total and phosphorylated Akt levels (RPPA)” value in [10] is given as “increased”. Further, the “HER3 total levels (RPPA)” value in [11] is listed as “significantly increased”. Also, the “phospho HER3 assay (VeraTag)” value in series [12] is given as “no significant effect”. Moreover, in series [13], the “Total HER2 levels (RPPA)” value is listed as “significantly increased”. Also, the “HER2:HER3 dimerization (VeraTag)” value in series [14] (data from both rounds combined, 8 day treatment) was “significantly induced HER2:HER3 dimerization compared to vehicle; also recorded: induces the formation of HER2:HER3 dimers”. In series [14] (round 1, 3 tumors per group), the “HER2:HER3 dimers (VeraTag)” value was “significantly upregulated the formation of HER2:HER3 dimers”. Besides, in [5], the “% TGI (tumor growth inhibition)” value is listed as 52%, the median tumor volume was 288 mm3, the “P relative to the control group” value is recorded as below 0.001 and the “anti-tumor efficacy / survival benefit (in words)” value is on record as “significantly reduced tumor growth”. In addition, in series [5] (listed as Faslodex®), the “Volume (mm^3) of xenograft MCF-7 tumors” value is 196 mm^3 (3×) and 172 mm^3 and 144 mm^3; the “Weight (mgs) of xenograft MCF-7 tumors” value is 137.9 mgs and 140.1 mgs and 174.4 mgs and 119.7 mgs and 117.3 mgs.

Source of the values: patent US12195551B2, “Combination of an ErbB-2/ErbB-3 bispecific antibody with endocrine therapy for breast cancer” (Merus N.V., priority 2017, dated 2025).
